We go through 2 molecules from patent publication US20090209426A1, “HERBICIDAL MIXTURE” (priority 2006, published 2009).

For this test, the system named is Digitaria nuda. As to the kind of experiment: Test A: greenhouse postemergence herbicidal effect on Digitaria nuda, visual rating 21 DAT. It is filed as in vivo. On the procedure:
Square plastic pots (10 cm on each side) were filled to the rim with a Redi-earth® (Sun Gro Horticulture, Bellevue, Wash.) planting medium containing 55-65% of Canadian sphagnum peat moss, horticultural grade vermiculite, dolomitic limestone and a wetting agent. The soil was tamped firm to a uniform level of 2.5 cm below the rim of the pot. A measured amount of Digitaria nuda seed was scattered on the soil surface of each pot. Seeded pots were covered with approximately 50 mL of the same planting media, tamped, and set out on a greenhouse bench.
The pots were watered thoroughly at once and then as needed with a dilute balanced N—P—K fertilizer solution to provide 218 ppm nitrogen. Artificial lighting was used to supplement natural light to produce a 14-hour photoperiod. Greenhouse temperatures were targeted for 27° C. during the daytime and 21° C. at night. Once the plants reached their appropriate growth stage, the plants were sorted into test units prior to the herbicide application. Digitaria nuda was 5 to 7 cm in height and at the 3-leaf stage at the time of application.
Test chemicals included diuron in the form of KARMEX® Herbicide, which is a 80 weight (wt.) % wettable granule formulation, a mixture of diuron with hexazinone in the form of DUPONT™ K4™ Herbicide, which a granule formulation containing 468 g of diuron and 132 g of hexazinone per kg of formulation, another mixture of diuron with hexazinone in the form of ADVANCE™ Herbicide, which is a wettable granule formulation containing 533 g of diuron and 67 g of hexazinone per kg of formulation, and mesotrione in the form of the commercial product CALLISTO® Herbicide, which is a 40 weight-volume (wt.-vol.) % suspension concentrate containing 400 g of mesotrione per liter of formulation. The application rates for this test were selected based on the recommended use rate of each compound. Application rates of diuron were 1800 g a.i./ha alone from KARMEX® Herbicide, 936 g a.i./ha from DUPONT™ K4™ Herbicide in combination with 264 g a.i./ha of hexazinone, and 1599 g a.i./ha from ADVANCE™ Herbicide in combination with 201 g a.i./ha of hexazinone. […] Furthermore diuron was tested alone and together with hexazinone in combination with mesotrione at these application rates.
The herbicides were diluted in a measured amount of carrier solution to make stock solutions. The carrier solution was water containing 0.25% v/v of non-ionic adjuvant X-77. The stock solutions were all mixed for 10 minutes before aliquots were taken to make individual treatment solutions. Vials were then brought up to final spray volume of 24 mL. The treatments were sprayed at a pressure of 276 kPa through a T-Jet 8002E (Spraying Systems Co., Wheaton, Ill.) flat fan nozzle onto the surface of the plants in a stationary belt sprayer system calibrated to deliver 280 L/Ha. Treatments were replicated three times.
The sprayed plants were placed in the greenhouse for observation; height and leaf stages were then recorded. Plants were maintained by watering as needed and in the same manner in which they were propagated with respect to nutrition, light, and day length. Visual evaluations were made 21 days after treatment (DAT). A numerical rating system was used to describe the visual response of each treatment on a scale of 0 to 100. Numerical ratings were expressed as the percent effect as compared to the control plants, calculated as the mean of the three replicates. Zero (0%) indicates no visual response, and 100% indicates plant death or a moribund state expected to rapidly end in death.
Colby's equation was used to calculate the expected additive herbicidal effect of the mixtures of mesotrione with diuron, alone and in combination with hexazinone. Colby's equation (S. R. Colby, “Calculating Synergistic and Antagonistic Responses of Herbicide Combinations,” Weeds, 15(1), pp 20-22 (1967)) calculates the expected additive effect of herbicidal mixtures, and for two active ingredients is of the form: […]

Turning to `CS(=O)(=O)c1ccc(C(=O)C2C(=O)CCCC2=O)c([N+](=O)[O-])c1` [Mesotrione, 2-[4-(methylsulfonyl)-2-nitrobenzoyl]-1,3-cyclohexanedione], the “Herbicidal Effect Observed” value (mesotrione 5 g a.i./ha alone (CALLISTO)) turned out to be 3%; the “Herbicidal Effect Observed” value (mesotrione 10 g a.i./ha alone) was found to be 17%; the “Herbicidal Effect Observed” value (mesotrione 20 g a.i./ha alone) is 33%; the “Herbicidal Effect Observed” value (mesotrione 30 g a.i./ha alone) is 50%; the “Herbicidal Effect Observed” value (mesotrione 40 g a.i./ha alone) is reported as 53%; the “Herbicidal Effect Observed” value (mesotrione 60 g a.i./ha alone) was 73%. Under “mesotrione 90 g a.i./ha alone”, the “Herbicidal Effect Observed” value was 88%.
With `CN(C)C(=O)Nc1ccc(Cl)c(Cl)c1` [Diuron, N′-(3,4-dichlorophenyl)-N,N-dimethylurea], for the setting “diuron 1800, hexazinone 0, mesotrione 0 g a.i./ha (KARMEX), mean of 3 replicates”, the “Herbicidal Effect Observed” value amounted to 20%.
